The numbers were not newly measured in US4644054A, “Calcitonin analogs with amino acid substituents at position 31” (priority 1985, dated 1987), which cites them from elsewhere.

The conditions of this series: compared with natural human calcitonin.

Bridge positions count the residues as written; N and C are the ends. Ends that are not written are not given here.

“human calcitonin analog with Serine^29 and Threonine^31substituents: human calcitonin analog with Serine at position 29 and Threonine at position 31 (Maier et al. 1974) (CGNLSTCMLGTYTQDFNKFHTFPQTAIGSGTP; disulfide 1-7; ends not checked; UniProt P01258 85-116, looked up, variant V29S A31T)”: the “activity relative to natural human calcitonin” value was “five times more active”.

Consider Salmon 1 calcitonin, for which the “activity relative to natural human calcitonin” value is listed as “thirty to forty times more active”.
